For 15 molecules, IC50 results are on record in patent US8975406B2, “Compound useful for the treatment of degenerative and inflammatory diseases” (Galapagos N.V., priority 2011, dated 2015).

What all share (format): biochemical
The target in one experiment is T1, Recombinant human JAK2 (Homo sapiens, UniProt O60674).
T1 construct: catalytic domain (amino acids 808-1132; catalog number PV4210); GST; purchased Invitrogen PV4210
Description: JAK2 Ulight-JAK1 peptide assay. As to conditions: Ulight-JAK1(tyr1023) peptide, 7.5 μM ATP. The protocol: Recombinant human JAK2 (catalytic domain, amino acids […]; catalog number PV4210) was purchased from Invitrogen. 0.0125 mU of JAK2 was incubated with 25 nM Ulight-JAK1(tyr1023) peptide (Perkin Elmer catalog number TRF0121) in kinase reaction buffer (25 mM HEPES pH7.0, 0.01% Triton X-100, 7.5 mM MgCl2, 2 mM DTT, 7.5 μM ATP) with or without 4 μL containing test compound or vehicle (DMSO, 1% final concentration), in a total volume of 20 μL, in a white 384 Opti plate (Perkin Elmer, catalog number 6007290). After 60 min at room temperature, reactions were stopped by adding 20 μL/well of detection mixture (1× detection buffer (Perkin Elmer, catalog number CR97-100C), 0.5 nM Europium-anti-phosphotyrosine (PT66) (Perkin Elmer, catalog number AD0068), 10 mM EDTA). Readout is performed using the Envision with excitation at 320 nm and measuring emission at 615 nm (Perkin Elmer). Kinase activity was calculated by subtracting relative fluorescence units (RFU) obtained in the presence of a positive control inhibitor (10 μM staurosporine) from RFU obtained in the presence of vehicle. The ability of a test compound to inhibit this activity was determined as: Percentage inhibition=((RFU determined for sample with test compound present−RFU determined for sample with positive control inhibitor)divided by(RFU determined in the presence of vehicle−RFU determined for sample with positive control inhibitor))*100.
Dose dilution series were prepared for each compound enabling the testing of dose-response effects in the JAK2 assay and the calculation of the IC50 for the compound. Each compound is routinely tested at concentration of 20 μM followed by a ⅕ serial dilution, 10 points in a final concentration of 1% DMSO. When potency of compound series increases, more dilutions are prepared and/or the top concentration are lowered (e.g. 5 μM, 1 μM). The data are expressed as the average IC50 from the assays±standard error of the mean.

The next experiment addresses T2, Recombinant human JAK1 (Homo sapiens, UniProt P23458).
T2 construct: catalytic domain (amino acids 866-1154; catalog number PV4774); purchased Invitrogen PV4774
Description: JAK1 Ulight-JAK1 peptide assay. Particulars: Ulight-JAK1(tyr1023) peptide, 7 μM ATP. The protocol:
Recombinant human JAK1 (catalytic domain, amino acids 866-1154; catalog number PV4774) was purchased from Invitrogen. 1 ng of JAK1 was incubated with 20 nM Ulight-JAK1(tyr1023) peptide (Perkin Elmer catalog number TRF0121) in kinase reaction buffer (25 mM MOPS pH6.8, 0.01% Brij-35, 5 mM MgCl2, 2 mM DTT, 7 μM ATP) with or without 4 μL containing test compound or vehicle (DMSO, 1% final concentration), in a total volume of 20 μL, in a white 384 Opti plate (Perkin Elmer, catalog number 6007290). After 60 min at room temperature, reactions were stopped by adding 20 μL/well of detection mixture (1× detection buffer (Perkin Elmer, catalog number CR97-100C), 0.5 nM Europium-anti-phosphotyrosine (PT66) (Perkin Elmer, catalog number AD0068), 10 mM EDTA). Readout is performed using the Envision with excitation at 320 nm and measuring emission at 615 nm (Perkin Elmer). Kinase activity was calculated by subtracting relative fluorescence units (RFU) obtained in the presence of a positive control inhibitor (10 μM staurosporine) from RFU obtained in the presence of vehicle. The ability of a test compound to inhibit this activity was determined as: Percentage inhibition=((RFU determined for sample with test compound present−RFU determined for sample with positive control inhibitor)divided by(RFU determined in the presence of vehicle−RFU determined for sample with positive control inhibitor))*100.
Dose dilution series were prepared for the compounds enabling the testing of dose-response effects in the JAK1 assay and the calculation of the IC50 for the compound. Each compound is routinely tested at concentration of 20 μM followed by a ⅕ serial dilution, 10 points in a final concentration of 1% DMSO. When potency of compound series increases, more dilutions are prepared and/or the top concentration are lowered (e.g. 5 μM, 1 μM). The data are expressed as the average IC50 from the assays±standard error of the mean.

In experiment [1] the target is T3, Recombinant human JAK3 catalytic domain (Homo sapiens, UniProt P52333).
T3 construct: catalytic domain (amino acids 795-1124; catalog number 08-046); purchased Carna Biosciences 08-046
Description: JAK3 inhibition assay. Particulars: polyGT substrate, 33P-gamma-ATP filter assay, 1 μM ATP. The protocol:
Recombinant human JAK3 catalytic domain (amino acids 795-1124; catalog number 08-046) was purchased from Carna Biosciences. 0.5 ng JAK3 protein was incubated with 2.5 μg polyGT substrate (Sigma catalog number P0275) in kinase reaction buffer (25 mM Tris pH 7.5, 0.5 mM EGTA, 10 mM MgCl2, 2.5 mM DTT, 0.5 mM Na3VO4, 5 mM b-glycerolphosphate, 0.01% Triton X-100, 1 μM non-radioactive ATP, 0.25 μCi ^33P-gamma-ATP (Perkin Elmer, catalog number NEG602K001MC) final concentrations) with or without 5 μL containing test compound or vehicle (DMSO, 1% final concentration), in a total volume of 25 μL, in a polypropylene 96-well plate (Greiner, V-bottom). After 45 min at 30° C., reactions were stopped by adding 25 μL/well of 150 mM phosphoric acid. All of the terminated kinase reaction was transferred to prewashed (75 mM phosphoric acid) 96 well filter plates (Perkin Elmer catalog number 6005177) using a cell harvester (Perkin Elmer). Plates were washed 6 times with 300 μL per well of a 75 mM phosphoric acid solution and the bottom of the plates was sealed. 40 μL/well of Microscint-20 was added, the top of the plates was sealed and readout was performed using the Topcount (Perkin Elmer). Kinase activity was calculated by subtracting counts per min (cpm) obtained in the presence of a positive control inhibitor (10 μM staurosporine) from cpm obtained in the presence of vehicle. The ability of a test compound to inhibit this activity was determined as: Percentage inhibition=((cpm determined for sample with test compound present−cpm determined for sample with positive control inhibitor)divided by(cpm determined in the presence of vehicle−cpm determined for sample with positive control inhibitor))*100.
Dose dilution series were prepared for the compounds enabling the testing of dose-response effects in the JAK3 assay and the calculation of the IC50 for each compound. Each compound was routinely tested at concentration of 20 μM followed by a ⅕ serial dilution, 10 points in a final concentration of 1% DMSO. When potency of compound series increased, more dilutions were prepared and/or the top concentration was lowered (e.g. 5 μM, 1 μM).

SMILES strings stand for the structures. pIC50: −log10 of the molar value. Some results are limits rather than exact numbers.

T2 sequence (P23458 866-1154): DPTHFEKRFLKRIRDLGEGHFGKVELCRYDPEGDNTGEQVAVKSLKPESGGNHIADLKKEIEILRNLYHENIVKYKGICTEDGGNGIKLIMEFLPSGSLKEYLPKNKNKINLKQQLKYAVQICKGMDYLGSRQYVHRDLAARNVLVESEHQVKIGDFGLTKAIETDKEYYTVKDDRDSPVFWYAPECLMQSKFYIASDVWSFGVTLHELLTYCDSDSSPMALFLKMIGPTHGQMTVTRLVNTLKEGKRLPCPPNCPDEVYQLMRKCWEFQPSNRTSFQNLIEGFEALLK
T1 sequence (O60674 808-1132): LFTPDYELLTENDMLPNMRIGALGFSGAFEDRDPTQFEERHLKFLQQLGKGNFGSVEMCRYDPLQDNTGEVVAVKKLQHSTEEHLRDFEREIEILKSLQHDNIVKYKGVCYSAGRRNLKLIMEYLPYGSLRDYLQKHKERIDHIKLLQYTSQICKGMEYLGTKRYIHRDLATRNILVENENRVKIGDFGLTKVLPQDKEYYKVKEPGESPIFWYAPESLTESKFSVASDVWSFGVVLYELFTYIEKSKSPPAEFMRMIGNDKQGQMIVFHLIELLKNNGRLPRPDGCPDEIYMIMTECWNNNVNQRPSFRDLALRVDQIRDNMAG
T3 sequence (P52333 795-1124): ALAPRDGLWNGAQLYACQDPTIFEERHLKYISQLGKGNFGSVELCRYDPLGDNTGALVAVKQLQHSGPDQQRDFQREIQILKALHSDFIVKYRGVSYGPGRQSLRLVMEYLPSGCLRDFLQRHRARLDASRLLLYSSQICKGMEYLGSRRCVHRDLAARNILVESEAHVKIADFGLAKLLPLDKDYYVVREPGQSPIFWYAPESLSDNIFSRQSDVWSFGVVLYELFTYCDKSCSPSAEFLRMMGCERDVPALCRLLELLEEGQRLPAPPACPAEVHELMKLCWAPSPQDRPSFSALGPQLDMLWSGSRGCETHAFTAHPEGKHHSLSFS

A word on the pIC50: it is the negative decadic logarithm of the IC50, by convention in mol/L. Take `O=C(NCCOc1ccccc1)c1ccc(-c2cccn3nc(NC(=O)C4CC4)cc23)cc1` [Compound 6, 4-(2-(cyclopropanecarboxamido)pyrazolo[1,5-a]pyridin-4-yl)-N-(2-phenoxyethyl)benzamide]: the pIC50 (at Recombinant human JAK2; at Recombinant human JAK1; in experiment [1]) was 7.00 to 11.00 in each case.

Take `CC(=O)Nc1cc2c(-c3ccc(CN4CCN(CC(F)(F)F)CC4)c(F)c3)cccn2n1` [Compound 28, N-(4-(3-fluoro-4-((4-(2,2,2-trifluoroethyl)piperazin-1-yl)methyl)phenyl)pyrazolo[1,5-a]pyridin-2-yl)acetamide]: the figures for the pIC50 (at Recombinant human JAK2; at Recombinant human JAK1; in experiment [1]) were 7.00 to 11.00, 7.00 to 11.00 and 6.30 to 7.00, respectively.

Regarding `O=C(Nc1cc2c(-c3ccc(OCc4ccccc4)cc3)cccn2n1)C1CC1` [Compound 2, N-(4-(4-(benzyloxy)phenyl)pyrazolo[1,5-a]pyridin-2-yl)cyclopropanecarboxamide], the pIC50 on Recombinant human JAK2 is 6.30 to 7.00; at Recombinant human JAK1, 6.30 to 7.00; in experiment [1], 7.00 to 11.00.

`CS(=O)(=O)C1CCN(Cc2ccc(-c3cccn4nc(NC(=O)C5CC5)c(Cl)c34)cc2F)CC1` [Compound 20, N-(3-chloro-4-(3-fluoro-4-((4-(methylsulfonyl)piperidin-1-yl)methyl)phenyl)pyrazolo[1,5-a]pyridin-2-yl)cyclopropanecarboxamide]: the pIC50 on Recombinant human JAK2 is 6.30 to 7.00; at Recombinant human JAK1, 7.00 to 11.00; in experiment [1], 6.00 to 6.30.

As for `CS(=O)(=O)C1CCN(Cc2ccc(-c3cccn4nc(NC(=O)C5CC5)c(Cl)c34)cc2)CC1` [Compound 19, N-(3-chloro-4-(4-((4-(methylsulfonyl)piperidin-1-yl)methyl)phenyl)pyrazolo[1,5-a]pyridin-2-yl)cyclopropanecarboxamide], the results for the pIC50 (at Recombinant human JAK2; at Recombinant human JAK1; in experiment [1]) were 6.00 to 6.30, 7.00 to 11.00 and less than 6.00, respectively.

`O=C(Nc1cc2c(-c3ccc(CN4CCCCC45COC5)cc3)cccn2n1)C1CC1` [Compound 48, N-(4-(4-(2-oxa-5-azaspiro[3.5]nonan-5-ylmethyl)phenyl)pyrazolo[1,5-a]pyridin-2-yl)cyclopropanecarboxamide]: the values for the pIC50 (at Recombinant human JAK2; on Recombinant human JAK1; in experiment [1]) were 6.30 to 7.00, 7.00 to 11.00 and 7.00 to 11.00, respectively.

Take `CC(=O)Nc1cc2c(-c3ccc(CN4CCS(=O)(=O)CC4)c(F)c3)cccn2n1` [Compound 27, N-{4-[4-(1,1-Dioxo-thiomorpholin-4-ylmethyl)-3-fluoro-phenyl]-pyrazolo[1,5-a]pyridin-2-yl}-acetamide]: the pIC50 (at Recombinant human JAK2; at Recombinant human JAK1; in experiment [1]) was 7.00 to 11.00 each time.

Regarding `O=C(Nc1nn2cccc(-c3ccc(CN4CCS(=O)(=O)CC4)cc3)c2c1F)C1CC1` [Compound 11, Cyclopropanecarboxylic acid {4-[4-(1,1-dioxo-thiomorpholin-4-ylmethyl)-phenyl]-3-fluoro-pyrazolo[1,5-a]pyridin-2-yl}-amide], the pIC50 (on Recombinant human JAK2; on Recombinant human JAK1; in experiment [1]) was 7.00 to 11.00 each time.

Take `COc1ccc(-c2cccn3nc(NC(=O)C4CC4)c(-c4ccccc4)c23)cc1` [Compound 7, N-(4-(4-methoxyphenyl)-3-phenylpyrazolo[1,5-a]pyridin-2-yl)cyclopropanecarboxamide]: the pIC50 (on Recombinant human JAK2; at Recombinant human JAK1; in experiment [1]) was less than 6.00 each time.

`CC(=O)Nc1cc2c(-c3cnc(CN4CCN(S(C)(=O)=O)CC4)c(F)c3)cccn2n1` [Compound 26, N-(4-(5-fluoro-6-((4-(methylsulfonyl)piperazin-1-yl)methyl)pyridin-3-yl)pyrazolo[1,5-a]pyridin-2-yl)acetamide]: the pIC50 on Recombinant human JAK2 was 6.30 to 7.00; on Recombinant human JAK1, 6.30 to 7.00; in experiment [1], less than 6.00.

On to `CC(=O)Nc1cc2c(-c3ccc(CN4CCN(S(C)(=O)=O)C[C@H]4C)cc3)cccn2n1` [Compound 24, (R)-N-(4-(4-((2-methyl-4-(methylsulfonyl)piperazin-1-yl)methyl)phenyl)pyrazolo[1,5-a]pyridin-2-yl)acetamide], for which the pIC50 on Recombinant human JAK2 was 6.00 to 6.30; at Recombinant human JAK1, 7.00 to 11.00; in experiment [1], 6.00 to 6.30.

Take `O=C(NCCc1ccccc1)c1ccc(-c2cccn3nc(NC(=O)C4CC4)cc23)cc1` [Compound 5, 4-(2-(cyclopropanecarboxamido)pyrazolo[1,5-a]pyridin-4-yl)-N-phenethylbenzamide]: the negative logarithm of the IC50 (pIC50) at Recombinant human JAK2 was 7.00 to 11.00; on Recombinant human JAK1 it was 7.00 to 11.00; in experiment [1], less than 6.00.

Turning to `CC(c1ccc(-c2cccn3nc(NC(=O)C4CC4)cc23)cc1)N1CCN(S(C)(=O)=O)CC1` (stereo not shown) [Compound 43, N-(4-(4-(1-(4-(methylsulfonyl)piperazin-1-yl)ethyl)phenyl)pyrazolo[1,5-a]pyridin-2-yl)cyclopropanecarboxamide], the pIC50 (at Recombinant human JAK2; on Recombinant human JAK1; in experiment [1]) was 7.00 to 11.00 in each case.

Regarding `O=C(Nc1cc2c(-c3ccc(OCc4cccnc4)cc3)cccn2n1)C1CC1` [Compound 8, N-(4-(4-(pyridin-3-ylmethoxy)phenyl)pyrazolo[1,5-a]pyridin-2-yl)cyclopropanecarboxamide], the pIC50 in experiment [1] is 6.30 to 7.00.

Turning to `CS(=O)(=O)N1CCN(Cc2ccc(-c3cccn4nc(NC(=O)C5CC5)cc34)cn2)CC1` [Compound 23, N-(4-(6-((4-(methylsulfonyl)piperazin-1-yl)methyl)pyridin-3-yl)pyrazolo[1,5-a]pyridin-2-yl)cyclopropanecarboxamide], the values for the pIC50 (on Recombinant human JAK2; on Recombinant human JAK1; in experiment [1]) were 6.30 to 7.00, 7.00 to 11.00 and 6.30 to 7.00, respectively.
